{"source": "patent CN105130966A", "about": "“炔基化合物及其使用方法和用途” (Add And Open Up Scientific Co, priority 2014, dated 2015)", "origin": "cited, not measured here", "key": {"[1]": {"system": "any protein kinase tested (试验的任何蛋白激酶)", "conditions": "Cell, 2006, 125, 733-747"}, "PI3Kδ": {"molecular_target": "PI3Kδ (Mus musculus, UniProt O35904)", "sequence (O35904 whole entry)": "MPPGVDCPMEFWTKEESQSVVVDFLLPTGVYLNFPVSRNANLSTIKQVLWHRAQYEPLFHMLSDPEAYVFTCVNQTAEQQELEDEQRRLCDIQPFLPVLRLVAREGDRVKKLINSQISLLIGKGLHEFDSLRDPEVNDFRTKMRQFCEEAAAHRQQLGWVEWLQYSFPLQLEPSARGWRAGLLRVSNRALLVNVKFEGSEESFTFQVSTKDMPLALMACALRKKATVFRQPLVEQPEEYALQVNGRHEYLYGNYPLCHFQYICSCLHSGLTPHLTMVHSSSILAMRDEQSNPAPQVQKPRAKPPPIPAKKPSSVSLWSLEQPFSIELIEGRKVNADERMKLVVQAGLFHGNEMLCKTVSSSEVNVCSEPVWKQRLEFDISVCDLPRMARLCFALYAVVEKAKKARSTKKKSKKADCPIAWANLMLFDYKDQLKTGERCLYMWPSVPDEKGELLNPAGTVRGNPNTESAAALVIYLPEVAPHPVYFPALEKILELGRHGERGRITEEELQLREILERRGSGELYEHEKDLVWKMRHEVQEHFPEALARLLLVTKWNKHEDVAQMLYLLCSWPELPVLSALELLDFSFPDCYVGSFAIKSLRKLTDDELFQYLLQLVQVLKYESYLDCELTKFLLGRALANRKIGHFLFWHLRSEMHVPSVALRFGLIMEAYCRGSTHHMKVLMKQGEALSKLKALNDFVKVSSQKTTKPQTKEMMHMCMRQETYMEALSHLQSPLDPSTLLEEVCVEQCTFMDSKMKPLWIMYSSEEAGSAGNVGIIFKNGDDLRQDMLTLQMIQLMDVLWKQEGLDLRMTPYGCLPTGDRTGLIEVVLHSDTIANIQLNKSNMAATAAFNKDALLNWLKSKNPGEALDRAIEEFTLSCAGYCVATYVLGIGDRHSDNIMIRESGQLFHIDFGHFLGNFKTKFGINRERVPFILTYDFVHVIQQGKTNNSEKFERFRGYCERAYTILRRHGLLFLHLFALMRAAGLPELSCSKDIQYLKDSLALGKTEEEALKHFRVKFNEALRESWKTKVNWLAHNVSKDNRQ", "sequence (P26450 whole entry partner)": "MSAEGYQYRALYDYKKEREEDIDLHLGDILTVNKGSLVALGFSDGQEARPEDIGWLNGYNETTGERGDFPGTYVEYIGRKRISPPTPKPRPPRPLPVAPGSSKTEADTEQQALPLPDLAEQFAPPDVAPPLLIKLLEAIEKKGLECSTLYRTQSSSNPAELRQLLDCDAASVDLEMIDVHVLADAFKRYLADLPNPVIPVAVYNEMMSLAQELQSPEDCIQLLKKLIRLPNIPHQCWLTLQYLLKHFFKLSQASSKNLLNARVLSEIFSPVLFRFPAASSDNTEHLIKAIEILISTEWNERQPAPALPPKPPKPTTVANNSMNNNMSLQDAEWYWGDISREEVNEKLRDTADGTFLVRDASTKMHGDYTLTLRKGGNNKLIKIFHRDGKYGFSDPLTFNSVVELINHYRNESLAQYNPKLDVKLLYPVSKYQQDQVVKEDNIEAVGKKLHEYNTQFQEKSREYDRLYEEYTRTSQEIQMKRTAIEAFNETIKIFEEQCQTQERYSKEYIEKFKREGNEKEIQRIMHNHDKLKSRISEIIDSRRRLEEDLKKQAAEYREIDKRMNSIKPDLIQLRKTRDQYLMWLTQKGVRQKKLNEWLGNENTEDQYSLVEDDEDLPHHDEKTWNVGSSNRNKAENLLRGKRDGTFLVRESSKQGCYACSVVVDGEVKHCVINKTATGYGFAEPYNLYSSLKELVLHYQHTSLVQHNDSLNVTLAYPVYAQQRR", "conditions": "ovalbumin-induced airway inflammation; FASEB, 2006, 20, 455-465"}}}
{"smiles": "Cc1ccccc1-n1c(Cn2cnc3c(N)ncnc32)nc2cccc(C)c2c1=O", "note": "[IC87114]", "values": [{"measurement": "activity", "setting": "[1]", "value": "不显示活性"}, {"measurement": "inflammation", "setting": "PI3Kδ", "value": "显著改善炎症"}]}
